In patent publication US9884032B2, “Esters of short chains fatty acids for use in the treatment of immunogenic disorders” (priority 2012, dated 2018):
Several values for one entry are separate records, joined by “and”; a condition that tells them apart may be missing. Equal values may be shown once. Entries after “also recorded” stand apart in the source; their conditions may differ. Read-outs that look alike come from different tables or passages of the source.

Key:
Format in all cases: in vivo, BALB/c mice
[1] = system: Influenza A strain HK/PR8; settings: for delta Ct / flu/β-actin: lungs day 5, individual mice; for flu/β-actin: Experiment 3
[2] = system: airway eosinophilia; test: Propionate intranasal efficacy study, HDM asthma: BAL differential cell counts (Example 3); settings: 100 mg/kg intranasally; all treatment regimes (pretreatment; pretreatment and priming; pretreatment, priming and challenge); day 14
Protocol: On days 0, 2, 4, 7, 8 and 11 mice were exposed to 15 ug of house dust mite extract (Greer) intranasally. On day 14, all mice were sacrificed and bronchoalveolar lavage (BAL) was performed with sterile PBS. The total number of macrophages (FIG. 3B), eosinophils (FIG. 3A), lymphocytes (FIG. 3C) and neutrophils (FIG. 3D) was determined by total and differential cell counts using standard morphological and cytochemical techniques.
BAL was performed by flushing the airways three times with 1 ml PBS. Total BAL cells were counted using a Coulter Counter (IG Instruments) and spun onto glass slides using a Cytospin 2 (Shandon Southern Products, Ltd.). Cells were then stained with Diff Quick staining set (Siemens-Dade Behring). Percentages of eosinophils, macrophages, lymphocytes and neutrophils were determined microscopically using standard morphological and cytochemical criteria.
Female BALB/c mice were purchased from Charles River Laboratories at 8 weeks of age. […] On days 0, 2, 4, 7, 8 and 11 mice were exposed to 15 μg of house dust mite extract (Greer) per nasal. On day 14, all mice were sacrificed and bronchoalveolar lavage (BAL) was performed with sterile PBS. The total number of macrophages, eosinophils, lymphocytes and neutrophils was determined by total and differential cell counts using standard morphological and cytochemical techniques. […]

[3] = system: Influenza virus strain PR8; test: Propionate intranasal efficacy study, influenza: lung viral load by PCR (Example 1); settings: 100 mg/kg intranasally on days -3, -1, 0; day 5 post infection; compared to saline
Protocol: On day 0 all mice were infected with Influenza virus strain PR8. On day 5 post infection, mice were sacrificed, lungs isolated and viral load determined by PCR.
Female BALB/c mice were purchased from Charles River Laboratories at 8 weeks of age. […] On day 0 mice were infected with 100 PFU of Influenza strain PR8 in 30 μl of PBS solution. On day 5 post infection, mice were sacrificed and lungs were removed and placed in Tri reagent solution. Total RNA was purified from cells obtained from whole lung tissue using Tri reagent. Real time PCR was carried out according to manufacturers instructions using the quantifast SYBR green RT-PCR kit (Qiagen). The following primers Influenza matrix protein primers were used: forward 5′-[…]-3′, reverse 5′-[…]-3′. B-actin primers forward 5′-[…]-3′, reverse 5′-[…]-3′ as previously described van Elden, L. J., M. Nijhuis, P. Schipper, R. Schuurman, A. M. van Loon. 2001. Simultaneous detection of influenza viruses A and B using real-time quantitative PCR. J. Clin. Microbiol. 39: 196-200.

[4] = system: metapneumonia virus A1 6621 (MPV); settings: 100 mg/kg intranasally day -1 and 0; day 5 post infection

CCC(=O)[O-].[Na+] [sodium propionate]
Flu titer at 1 mg/kg compared with the other doses ([1]; Experiment 1, doses 100, 10, 1 mg/kg i.n.): lowest Flu titers | delta Ct ([1]; Experiment 2, 0.01 mg/kg i.n. day 0, listed as NA Propionate, 0.01 mg/kg): 0.05776 and 0.1427 and 0.4687 and 0.01899 and 0.2875 | delta Ct ([1]; Experiment 2, 0.1 mg/kg i.n. day 0, listed as NA Propionate, 0.1 mg/kg): 0.3178 and 0.08239 and 0.2101 and 0.01484 and 0.2815 | delta Ct ([1]; Experiment 2, 1 mg/kg i.n. day 0, listed as NA Propionate, 1 mg/kg): 0.01819 and 0.02787 and 0.08699 and 0.009033 and 0.07967 | delta Ct ([1]; Experiment 2, 10 mg/kg i.n. day 0, listed as Na Propionate, 10 mg/kg): 0.1146 and 0.03546 and 0.05123 and 0.1345 | delta Ct ([1]; Experiment 2, 100 mg/kg i.n. day 0, listed as Na Propionate, 100 mg/kg): 0.02338 and 0.01681 and 0.2248 and 0.2282 | efficacy against influenza infection, dose titration ([1]; Experiment 2, dose of 0.1 mg/kg or less i.n.): lack of efficacy | Flu titer / efficacy at 1 mg/kg compared with the other doses ([1]; Experiment 2, doses 100 to 0.01 mg/kg i.n.): highest efficacy; also recorded: lowest Flu titer | efficacy against influenza infection, dose titration ([1]; Experiment 2, from 100 mg/kg to 1 mg/kg i.n.): trend towards efficacy | flu/β-actin ([1]; 100 mg/kg i.n. Day 0, listed as Na Propionate, 100 mg/kg): 0.154 and 0.244 and 0.334 and 0.303 | flu/β-actin ([1]; 100 mg/kg i.n. Day +1, listed as Na Propionate, 100 mg/kg): 0.176 and 0.277 and 0.312 and 0.217 | optimal dose, intranasal ([1]; mouse, in vivo): 1 mg/kg | airway eosinophilia (BAL eosinophils) [2]: statistically significant reductions | viral load in the lungs [3]: markedly lower viral load | protection against MPV infection [4]: exhibits efficacy in the protection against MPV infection
